Experimental findings from US11534457B2, “Use of dextran sulfate” (priority 2017, dated 2022) are described below.

Series [1] has as its system βIII-tubulin expression in mouse cortical neurons. Put plainly: βIII-tubulin immunostaining (differentiation-related protein expression). In kind it is cell-based. The note with it: 48 h. The protocol:
Neurons were cultured as 40,000 cells per well and Schwann cells 3,000 cells per. Cells were treated after 24 hours. The number of cells per well depended on the growth phenotype, proliferative capacity, etc.
PNGM was prepared by adding PNGM Singlequots (Lonza) to PNBM medium and pre-warmed to 37° C. Cells were thawed in a 37° C. water bath for no longer than 2 min and gently transferred into a 15 ml tube. 5 ml of medium was gently added drop-wise. Cell suspension was mixed by inverting the tube carefully twice. Cells were counted with a Cellometer AUTO T4 (Nexcelom Bioscience). 40,000 cells per well were seeded in previously coated 96-well plates. Cells were incubated at 37° C. with 5% CO2. […]
LMW-DS was prepared in the culture media of choice for each cell line and added to the respective wells in the doses 0.01 and 0.1 mg/ml. For cell survival assays cells were analyzed after 24 and 48 hours in eight identical wells/dose/time point. Differentiation and protein expression assay was analyzed after 48 hours, also in octuplicates. […]
The Acumen cytometer allows the direct cytometric analysis of attached cells without prior detachment. […] The protein content of the cells can also be directly measured and expressed as either ‘total protein content’ or ‘mean protein content’.

Series [2] deals with human primary cell-based systems. Put plainly: BioMAP Diversity PLUS panel (whole panel, profile and similarity analysis). An excerpt: In this study LMW-DS was characterized by profiling in the BioMAP® Diversity PLUS panel. The BioMAP® panel consists of human primary cell-based systems designed to model different aspects of the human body in an in vitro format. The 12 systems in the BioMAP® Diversity PLUS panel (Table 32) allow test agent characterization in an unbiased way across a broad set of systems modeling various human disease states. The BioMA®P systems are constructed with one or more primary cell types from healthy human donors, with stimuli, such as cytokines or growth factors, added to capture relevant signaling networks that naturally occur in human tissue or pathological conditions. Vascular biology is modeled in both a Th1 (3C system) and a Th2 (4H system) inflammatory environment, as well as in a Th1 inflammatory state specific to arterial smooth muscle cells (CASM3C system). Additional systems recapitulate aspects of the systemic immune response including monocyte-driven Th1 inflammation (LPS system) or T cell stimulation (SAg system), chronic Th1 inflammation driven by macrophage activation (IMphg system) and the T cell-dependent activation of B cells that occurs in germinal centers (BT system). The BE3C system (Th1) and the BF4T system (Th2) represent airway inflammation of the lung, while the MyoF system models myofibroblast-lung tissue remodeling. Lastly, skin biology is addressed in the KF3CT system modeling Th1 cutaneous inflammation and the HDF3CGF system modeling wound healing.
Each test agent generates a signature BioMAP® profile that is created from the changes in protein biomarker readouts within individual system environments. Biomarker readouts (7-17 per system) are selected for therapeutic and biological relevance, are predictive for disease outcomes or specific drug effects and are validated using agents with known mechanism of action (MoA). Each readout is measured quantitatively by immune-based methods that detect protein, e.g., ELISA, or functional assays that measure proliferation and viability. BioMAP® readouts are diverse and include cell surface receptors, cytokines, chemokines, matrix molecules and enzymes. In total, the BioMAP® Diversity PLUS panel contains 148 biomarker readouts that capture biological changes that occur within the physiological context of the particular BioMAP® system.
Four concentrations of LMW-DS (150 nM, 440 nM, 1.3 μM, 4 μM) were investigated in the BioMAP® Diversity PLUS panel by Eurofins.
Human primary cells in BioMAP systems are used at early passage (passage 4 or earlier) to minimize adaptation to cell culture conditions and preserve physiological signaling responses. All cells are from a pool of multiple donors (n=2-6), commercially purchased and handled according to the recommendations of the manufacturers. Human blood derived CD14^+ monocytes are differentiated into macrophages in vitro before being added to the /Mphg system. Abbreviations are used as follows: Human umbilical vein endothelial cells (HUVEC), Peripheral blood mononuclear cells (PBMC), Human neonatal dermal fibroblasts (HDFn), B cell receptor (BCR), T cell receptor (TCR) and Toll-like receptor (TLR).
Cell types and stimuli used in each system are as follows: 3C system [HUVEC+(IL-1β, TNFα and IFNγ)], 4H system [HUVEC+(IL-4 and histamine)], LPS system [PBMC and HUVEC+LPS (TLR4 ligand)], SAg system [PBMC and HUVEC+TCR ligands], BT system [CD19^+ B cells and PBMC+(a-IgM and TCR ligands)], BF4T system [bronchial epithelial cells and HDFn+(TNFα and IL-4)], BE3C system [bronchial epithelial cells+(IL-1β, TNFα and IFNγ)], CASM3C system [coronary artery smooth muscle cells+(IL-1β, TNFα and IFNγ)], HDF3CGF system [HDFn+(IL-1β, TNFα, IFNγ, EGF, bFGF and PDGF-BB)], KF3CT system [keratinocytes and HDFn+(IL-1β, TNFα, IFNγ and TGFβ)], MyoF system [differentiated lung myofibroblasts+(TNFα and TGFβ)] and /Mphg system [HUVEC and M1 macrophages+Zymosan (TLR2 ligand)].
Systems are derived from either single cell types or co-culture systems. […]

Entries after “also recorded” stand apart in the source; their conditions may differ.

Take “low molecular weight dextran sulfate [LMW-DS]”: the βIII-tubulin intensity result in series [1] (0.01 and 0.1 mg/ml) is given as “significantly increased”. In addition, the “size of βIII-tubulin positive cells vs control culture” value in series [1] is “larger”. In series [2] (150 nM to 4 μM), the CD69 result is listed as “increased”, the EGFR entry is given as “increased”, the “Eotaxin 3 (Eot3)” value is on record as “increased” and the I-TAC entry is on record as “decreased”. Also, in series [2] (150 nM to 4 μM), the IL-8 result is “increased”, the IP-10 result was “decreased”, the M-CSF entry was “decreased” and the MCP-1 entry is recorded as “decreased”. In addition, in series [2] (150 nM to 4 μM), the MIG entry is given as “decreased”, the MMP-1 entry is “increased”, the PAI-1 entry was “increased” and the VCAM-1 entry is on record as “decreased”. For the same substance, in series [2] (150 nM to 4 μM), the “cytotoxicity for human primary cells” value was “not cytotoxic; also recorded: noncytotoxic”, the sTNFα entry is on record as “decreased”, the “secreted immunoglobulin G (sIgG)” value is on record as “decreased” and the “thrombomodulin (TM)” value is reported as “increased”. Further, the uPAR entry in series [2] (150 nM to 4 μM) is “increased”. Besides, the “annotated readouts in BioMAP profile” value in series [2] (150 nM, 440 nM, 1.3 μM, 4 μM) is listed as 25. For the same substance, the “proliferation of human primary endothelial cells” value in series [2] (top concentration only (4 μM)) is “modestly and selectively antiproliferative”.
